Measurements as given in EPA's ToxValDB 9.5 (doi:10.2903/j.efsa.2005.29r).
Values joined by “and” are separate entries in the source; they are usually repeats but may differ in a detail not shown here. Equal values may be shown once.

Assays:
Typhlodromus pyri = experiment: LR50; higher = less toxic; details: chronic/long-term; duration: 7 days; mortality
Coturnix coturnix = details: oral
Daphnia magna = details: chronic/long-term
Canidae = details: subchronic; duration: 90 days; oral; Dog Other; clinical signs
Aphidius rhopalosiphi = details: not reported; mortality
Oncorhynchus mykiss = details: for NOEC: chronic/long-term
Oryctolagus sp. = details: developmental; development
Apis mellifera = details: acute, mortality

`Cc1ccc(N(SC(F)(Cl)Cl)S(=O)(=O)N(C)C)cc1` [Tolylfluanid] was tested, and the LR50 (Typhlodromus pyri) was 247 g/ha, the LC50 (Coturnix coturnix; acute, duration: 5 days, diet, mortality) was over 5000 mg/kg and the LD50 (Coturnix coturnix; acute, mortality) was over 2000 mg/kg. It also gave an NOEC (Coturnix coturnix; reproduction developmental, duration: 21 weeks, diet) of 791 mg/kg-day, an NOAEC (Daphnia magna; duration: 40 days) of 180 µg/L and an NOAEC (Daphnia magna; duration: 51 days) of 99 µg/L. For the same compound, the NOAEL (Canidae) was 33 mg/kg-day, the LC50 (Tagia sp.; acute, duration: 14 days, mortality) was over 1000 mg/kg and the NOEC (Tagia sp.; chronic/long-term, reproduction) was 24000 g/ha. The LEL (Aphidius rhopalosiphi) was 2500 g/ha, the LD50 (Rattus norvegicus; acute, oral, mortality) was over 5000 mg/kg and the NOAEL (Rattus norvegicus; reproduction developmental, M, body weight) was 12 mg/kg-day. The NOEC (Rattus norvegicus; short-term, duration: 28 days, oral, diet) was 1500 mg/kg-day, the LC50 (Oncorhynchus mykiss; acute, duration: 96 hours, mortality) was 0.045 mg/L and 0.016 mg/L and the NOEC (Oncorhynchus mykiss; duration: 28 days) was 44 µg/L. It also gave an NOEC (Oncorhynchus mykiss; duration: 35 days) of 60 µg/L, an NOAEL (Oryctolagus sp.) of 25 mg/kg-day and an LD50 (Apis mellifera; duration: 48 hours, dermal) of over 196 µg/piece. For the same compound, the LD50 (Apis mellifera; oral, unspecified) was over 197 µg/piece.
